Laboratory results as given in US10010585B2, “Methods of treating vestibular schwannoma and reducing hearing or neurite loss caused by vestibular schwannoma” (Massachusetts Eye and Ear Infirmary, priority 2014, dated 2018).
Several values for one entry are separate records, joined by “and”; a condition that tells them apart may be missing. Equal entries are not always repeated.

Assays:
sporadic VS = details: retrospective study, serial MRI scans (Kandathil et al., 2014); cited from earlier work
primary VS cells [1] = test: BrdU proliferation assay in primary VS cultures; type: cell-based, human; details: 48 hours
Experimental: Proliferation rate of 12 VS cultures was assessed and correlated with the tumor volume in the latest gadolinium enhanced T1-weighted MRI scan prior to surgical resection, and with tumor growth in vivo, measured as changes in the tumor's volume over time calculated from serial MRI scans. Tumor growth was standardized by dividing the growth rate by the initial tumor volume. Separate analyses were performed for solid tumors, which generally account for approximately 96% of VSs (Charabi et al., 1994), versus all studied tumors, which included 4 out of 13 total tumors with a visible cystic component, because cystic components could misrepresent true tumor volume (Charabi et al., 1994). To determine the level of cell proliferation in the cultures, Bromodeoxyuridine (BrdU) was added to the cells at a concentration of 10 μg/ml 20 hours before the cells were fixed. The cells were kept in the dark after the addition of BrdU Immunofluorescence protocol was followed as described under ‘Immunofluorescence,’ and cell and nuclear membranes were permeablized by incubation in 1% Triton-X for 10 minutes and by incubation in 2N Hydrochloric acid for 20 minutes, respectively, after fixation. Primary antibody against BrdU (AbD Serotec, NC, 1:200) and anti-rat IgG (Life Technologies, NY, 1:1000) were used. BrdU- and Hoechst-stained nuclei were counted in 3-5 fields and the ratio of BrdU positive to Hoechst positive nuclei was used to determine the proliferation rate in vitro. […]
(§1) Cultured human primary VS cells, primary SCs and HEI-193 cells were treated with NF-κB inhibitors BAY11-7082 (BAY11) or curcumin for 48 hours (Santa Cruz Biotechnology). BAY11 or curcumin, diluted in 100% DMSO, were mixed to the accurate concentrations in warmed media and applied to the cultures (with DMSO concentration in media being 1% maximum), alongside a no-treatment control receiving media alone with appropriate corresponding DMSO levels. Experiments were performed in media fortified with antibiotics and serum (same formulation as described in Example 1 for culturing cells).
(§2) After 48 hours of treatment, primary VS and Schwann cultures were fixed for BrdU staining, to visualize proliferation, or TUNEL staining, to visualize cell death. The same methodology as described in Example 1 was utilized. Cleaved caspase 3 staining, another apoptosis marker to reinforce findings using TUNEL, was conducted using an antibody against cleaved caspase 3 following the ‘immunofluorescence’ protocol outlined in Example 1.
(§3) The cultures were incubated with the drugs for 48 hours. To label proliferating cells, BrdU was added 20 hours before fixation. pH was measured in the media after drug addition to ensure no significant deviations.
(§4) After 48 hours of treatment with salicylates, primary VS and SC cultures were fixed for BrdU staining, to visualize proliferation, or TUNEL staining, to visualize cell death. The same methodology as described in Example 1 was utilized.
To understand cross-talk between HGF and VEGF-A pathway, cultured VS cells were incubated with Life Technologies silencer select siRNAs targeting VEGFA (s461) or MET (s8700). To understand whether HGF signaling contributed to VS proliferation, cultured VS cells were treated with MET inhibitor SU11274 (Sigma-Aldrich, MO, #S9820). Seventy-two hours after siRNA treatment or 12 hours after treatment with SU11274 (2 μM), cells were incubated with 10 μg/mL BrdU (Life Technologies, NY, # B23151) for 20 hours before fixation.

COX-2 = details: 5 mM, 48 hours, VS culture media
Experimental: Prostaglandin (PTG) E2 was assayed in the media of VS cultures using the Prostaglandin E2 Parameter Assay Kit (R&D Systems, KGE004B). The media was collected after 48 hours of treatment from non-treated and treated cultured cells. Manufacturer's instructions were closely followed.
as §3

primary VS cells [2] = test: TUNEL cell death assay in primary VS cultures; type: cell-based, human; details: 48 hours
Experimental: Rate of apoptosis in 6 VS cultures was assessed and correlated with tumor growth in vivo and tumor volume. […] Apoptosis was measured using terminal deoxynucleotidyl transferase dUTP nick end labeling (TUNEL, Roche Applied Sciences, NY) following manufacturer's instructions. Briefly, immunofluorescence protocol was followed as described under ‘Immunofluorescence,’ until fixations, then the cells were washed with PBS thrice and incubated in 1% Triton-X for 10 minutes on shaker. The cells were washed with PBS once and incubated in TUNEL mix for 1 hour at 37° C., then for 30 minutes at RT on shaker. The cells were then incubated in rhodamine phalloidin (Life Technologies, NY, 1:40) and Hoechst stain for 20 minutes, washed with PBS thrice and mounted onto slides for imaging. TUNEL and Hoechst stained nuclei were counted in >3 fields and the ratio of TUNEL positive to Hoechst positive nuclei was used to determine apoptosis rate in vitro. A positive control of 10 minutes-DNAse (Roche Applied Sciences, NY) treatment prior to TUNEL labeling was utilized.
For siRNA treatment, cultured primary VS cells or HEI-193 cells were placed in antibiotic and serum free media overnight. The next day, the cells were incubated with Life Technologies siRNAs targeting NF-κB genes RELA and NF-κB1, with control cells being treated with vehicle only (Lipofectamine RNAiMax), for 5 days. Some cultures were also incubated with a fluorescent random Oligo (Life Technologies) along with vehicle to assess transfection efficiency. siRNA experiments were performed in antibiotic and serum free media.
BAY11 or curcumin, diluted in 100% DMSO, were mixed to the accurate concentrations in warmed media and applied to the cultures (with DMSO concentration in media being 1% maximum), alongside a no-treatment control receiving media alone with appropriate corresponding DMSO levels.
After 48 hours of treatment, primary VS and Schwann cultures were fixed for BrdU staining, to visualize proliferation, or TUNEL staining, to visualize cell death.
After 48 hours of treatment with salicylates, primary VS and SC cultures were fixed for BrdU staining, to visualize proliferation, or TUNEL staining, to visualize cell death.

primary SCs = test: BrdU proliferation assay in primary Schwann cell cultures; type: cell-based, human; details: 48 hours
Experimental: Proliferation rate of 12 VS cultures was assessed and correlated with the tumor volume in the latest gadolinium enhanced T1-weighted MRI scan prior to surgical resection, and with tumor growth in vivo, measured as changes in the tumor's volume over time calculated from serial MRI scans. Tumor growth was standardized by dividing the growth rate by the initial tumor volume. Separate analyses were performed for solid tumors, which generally account for approximately 96% of VSs (Charabi et al., 1994), versus all studied tumors, which included 4 out of 13 total tumors with a visible cystic component, because cystic components could misrepresent true tumor volume (Charabi et al., 1994). To determine the level of cell proliferation in the cultures, Bromodeoxyuridine (BrdU) was added to the cells at a concentration of 10 μg/ml 20 hours before the cells were fixed. The cells were kept in the dark after the addition of BrdU Immunofluorescence protocol was followed as described under ‘Immunofluorescence,’ and cell and nuclear membranes were permeablized by incubation in 1% Triton-X for 10 minutes and by incubation in 2N Hydrochloric acid for 20 minutes, respectively, after fixation. Primary antibody against BrdU (AbD Serotec, NC, 1:200) and anti-rat IgG (Life Technologies, NY, 1:1000) were used. BrdU- and Hoechst-stained nuclei were counted in 3-5 fields and the ratio of BrdU positive to Hoechst positive nuclei was used to determine the proliferation rate in vitro.
as §1, §2, §3, §4

[3] = tested on: cochlear explant cultures (hair cells and neurites); test: Murine cochlear explant culture, hair cell, neurite and fiber damage counts; type: cell-based, CBA/CaJ mice; details: for number of IHCs per 100 μm length / number of OHCs / number of neurites / severity of fiber disorganization / damage: recombinant human protein 5 μg/mL, 48 hours; for severity of fiber disorganization / damage: scale 0 to 2
Text: To develop an animal model to study hearing loss due to VS, cochlear explant cultures were established from postnatal CBA/CaJ mice aged P3-P5 (Jackson Laboratory, ME). Briefly, after decapitating the mouse, temporal bones were dissected from the skull in Hank's Balanced Salt Solution (Life Technologies, NY). The otic capsule encasing the cochlea was dissected out from each temporal bone. The otic capsule was carefully stripped away and the spiral ligament was peeled away from the entire cochlea, starting from the base. The basal turn of cochlea was then isolated using the dissecting knife (Fine Science Tools, CA), discarding the apical turn hook region. The tectorial membrane and the Reissner's membrane were removed, leaving the organ of Corti intact with the spiral ganglion neuron region. This explant was cultured onto a 10 mm glass coverslip coated with CellTak (BD Biosciences, CA, #354241) in a 35 mm culture dish with 4 wells. Cells were cultured in 98% DMEM, 1% ampicillin and 1% N2 supplement.
To assess FGF2's otoprotective effect, cochlear explant cultures were treated with recombinant human FGF2±gentamicin. After culturing the explants overnight, media fortified with FGF2 (100 ng/mL) was applied. Twenty-four hours later media fortified with gentamicin (1 mM) and FGF2 (100 ng/mL) was applied. […] Cochlear explants were fixed after an additional 24 hours of treatment, with total time being 48 hours.
After treatment, the explants were fixed and stained with antibodies against myosin 7A (Myo7A, Proteus Biosciences, CA) and β-tubulin (Tuj1, Covance, MA) to identify hair cells (HCs) and neurons, respectively. The same immunofluorescence protocol as described in Example 1 was used, with the exceptions of omission of […] HCl incubation, usage of 5% NHS with 1% Triton-X for blocking solution and 1% NHS with 0.4% Triton-X solution for primary antibody incubation at room temperature (RT). Secondary antibodies (Alexa Flour 555 anti-mouse and Alexa Four 488 anti-rabbit) were purchased from Life Technologies. Cochlear explants were imaged using a Leica TCS SP5 Confocal microscope. Zoomed-in pictures for the region of organ of Corti, including neurites, were merged in a z-stack to obtain a z-axis projection image in the Leica software. The number of hair cells (HCs) and neurites were manually counted per 100 μm length along the cochlea, with 1-2 samplings per specimen.
The same general methodology for murine cochlear explant cultures as described in Example 5 was utilized. Cochlear explant cultures were established from P2-P3 mice. Importantly, instead of only culturing the basal turn, the apical turn was also isolated, providing two pieces per cochlea with a greater frequency range. After approximately 12 hours, the cochlear explant cultures were treated for 48 hours with tumor secretions diluted to half their concentration. The formulation was 46.5% tumor-conditioned DMEM, 46.5% plain DMEM, 5% FBS, 1% ampicillin and 1% N2 supplement. Cochlear explants were treated with control media in parallel, being 46.5% DMEM incubated without tumor, 46.5% plain DMEM, 5% FBS, 1% ampicillin and 1% N2 supplement. All reagents were purchased from Life Technologies, NY. Osmolality in the solutions was measured in samples using a vapor-pressure osmometer (standardized with 290 mOsm/kg of 0.1567M sodium chloride solution) before applying them onto cochlear explants. Extra formulation for each VS secretion was made to be tested on Milliplex arrays and ELISA. Milliplex array, containing FGF2, VEGF-A and HGF beads (Millipore) and human TNFα ELISA (R&D Systems) were conducted as directed by the manufacturer on VS secretions prior to being applied onto the cochlear explant cultures.
Cochlear explants were fixed 48 hours after treatment and the same methodology for VS secretion application as described in Example 5 was utilized. […]

HGF = test: Mouse HGF ELISA on cochlear explants; type: cell-based; details: recombinant human protein 5 μg/mL, 48 hours; control 48.1±17.0
Experimental: Recombinant human VEGF-A (R&D Systems), diluted in culture media to a 5 μg/mL concentration, was applied to cochlear explants for 48 hours. The explants were fixed and the same protocol as outlined previously was followed (Example 6). […] Plain media with neutralization VEGF-A antibody and VS secretions incubated with only goat IgGs (R&D Systems, MN) were prepared simultaneously as controls. Success of VEGF-A neutralization was confirmed using ELISA.
Human VEGF-A ELISA and mouse HGF ELISA kits were purchased from R&D systems and manufacturer's protocols were followed.

rat cochlear explants = details: 1 mM (Zheng and Gao, 1996); cited from earlier work

CC(=O)Oc1ccccc1C(=O)O [aspirin]
probability of VS growth in comparison to VS patients not taking aspirin (sporadic VS): approximately half
proliferation, of the NT cells (primary VS cells [1]; 1 mM): 129.6±26.2%
proliferation, of the NT cells (primary VS cells [1]; 5 mM): 19% and 19.3±5.5%
secreted PTG levels, of NT cells (COX-2): 3.1%
cell death rate (primary VS cells [2]; 1 mM): 0.6±0.3%
cell death rate (primary VS cells [2]; 5 mM): 2.8±2.2%
normalized proliferation rate, of the NT cells (primary SCs; 1 mM): 124.4±72.9%
proliferation, of the NT cells (primary SCs; 5 mM): 198.1±141.3%

TNFα
number of IHCs per 100 μm length ([3]; apical turn): 13.2±1.0 per 100 μm
number of OHCs ([3]; apical turn): 39.1±2.2 per 100 μm
number of neurites ([3]; apical turn): 14.3±2.9 per 100 μm
severity of fiber disorganization / damage ([3]; apical turn): 0.2±0.5
number of IHCs per 100 μm length ([3]; basal turn): 12.1±2.8 per 100 μm
number of OHCs ([3]; basal turn): 31.8±14.9 per 100 μm
number of neurites ([3]; basal turn): 11.3±2.4 per 100 μm
severity of fiber disorganization / damage ([3]; basal turn): 0.8±0.4
secreted HGF levels in cochlear explants (HGF): did not lead to changes

gentamicin
HC loss (rat cochlear explants): almost complete HC loss
neurites lost (rat cochlear explants): 25%
number of neurites per 100 μm ([3]; 1 mM gentamicin, basal turn, NT 13.1±1.7): 7.3±2.3 per 100 μm
total number of HCs per 100 μm length ([3]; 1 mM gentamicin, basal turn, NT 49.1±8.7): 10.4±7.0 per 100 μm
